Reference: patent US20090060997A1, “PROCESS FOR PRODUCING A PHARMACEUTICAL PREPARATION FOR THERAPEUTIC TREATMENT OF ENDOMETRIOSIS CONTAINING A COMBINATION OF A GESTAGEN AND (6S)-5-METHYLTETRAHYDROFOLATE” (priority 2007, published 2009)

Key:
[1] = test system: women with laparoscopically diagnosed endometriosis; assay: Clinical study in endometriosis: pain scale (Visual Analog Scale, VAS) questionnaire; assay type: in vivo; conditions: 6 months; for reduction in pain (VAS) at the end of the treatment compared to the beginning of the study: DNG 2 mg/day orally, LA 3.75 mg s.c. every 4 weeks
Excerpt: (§1) 128 patients were randomly assigned to the LA group and 124 patients to the DNG group. The efficacy of the therapy was examined, among other ways, with the aid of a pain scale (Visual Analog Scale, VAS) questionnaire that was filled out by the patient.

[2] = design: species or system women; conditions: in vivo
Excerpt: as §1

[3] = test system: ovulation; conditions: daily dose; cited from earlier work
[4] = test system: persons affected with endometriosis; conditions: 2 mg of dienogest daily for 24 weeks; cited from earlier work

Compound	reduction in pain (VAS) at the end of the treatment compared to the beginning of the study [1]	drop in bone density [2]	ovulation-inhibiting dose [3]	statistical analysis of pain reduction versus LA ([1]; DNG 2 mg/day orally vs LA 3.75 mg s.c. every 4 weeks)	result of the treatment of endometriosis [4]
CCNC(=O)[C@@H]1CCCN1C(=O)[C@H](CCCNC(=N)N)NC(=O)[C@H](CC(C)C)NC(=O)[C@@H](CC(C)C)NC(=O)[C@H](Cc1ccc(O)cc1)NC(=O)[C@H](CO)NC(=O)[C@H](Cc1c[nH]c2ccccc12)NC(=O)[C@H](Cc1c[nH]cn1)NC(=O)[C@@H]1CCC(=O)N1 [LA, leuprorelin acetate]	−46.0 mm	4%	–	–	–
CC(=O)O[C@]1(C(C)=O)CC[C@H]2[C@@H]3C=C(Cl)C4=CC(=O)CC[C@]4(C)[C@H]3CC[C@@]21C [chlormadinone acetate]	–	–	1.7 mg	–	–
CC(=O)O[C@]1(C(C)=O)CC[C@H]2[C@@H]3C=C(Cl)C4=CC(=O)[C@@H]5C[C@@H]5[C@]4(C)[C@H]3CC[C@@]21C [cyproterone acetate]	–	–	1 mg	–	–
C[C@]12CCC3=C4CCC(=O)C=C4CC[C@H]3[C@@H]1CC[C@@]2(O)CC#N [dienogest, 17α-cyano-methyl-17-β-hydroxy-estra-4,9-dien-3-one]	−47.5 mm	no reduction in bone density	–	not inferior to LA	comparable to that with Danazol or with a GnRH agonist
